From patent US20060258754A1, “Method of treating endothelial dysfunction, oxidative stress and related diseases” (priority 2004, published 2006)
Entries after “also recorded” stand apart in the source; their conditions may differ.

Columns and labels:
[1] = tested on: renal vascular bed of perfused kidneys; test: Acute perfusion of diabetic rabbit kidneys: acetylcholine-induced decrease in perfusion pressure; design: species or system alloxan-diabetic rabbits; conditions: 3-week diabetic rabbit kidneys; for restoration of vasorelaxant effect of acetylcholine, DCI versus db-DCI: repeated perfusion experiment, 1 μM; for restoration of endothelial function (acetylcholine induced decrease in perfusion pressure): perfusion with 1 μM, first experiment
Method: (§1) Male California rabbits, weighing 2-2.5 kg, were provided by the vivarium of the Biomedicine Institute-UFC. Diabetes was induced by intraperitoneal injection of alloxan (150 mg/kg) and only animals with plasma glucose concentration above 200 mg/dl were included in the study. Age-matched euglycemic rabbits were used as controls.
Kidneys and aortic rings are harvested from diabetic rabbits after 3 weeks of alloxan injection. They are perfused with KHS containing 1 μM D-chiro-inositol, pinitol, dibutyryl D-chiro-inositol, myo-inositol or saline for 1 hour. Dose response curves for acetylcholine are then performed following prior phenylephrine vasoconstriction as described. At least 6 separate experiments will be performed each in duplicate.
Kidneys and aortic rings were harvested from diabetic rabbits after 3 weeks of alloxan injection. The animals were sacrificed under sodium pentobarbital anesthesia (Hypnol®, 150-200 mg/kg). […]. Rabbit kidneys were obtained from male New Zealand rabbits (1-1.5 kg) after cannulation of the renal artery in situ. [Thereafter the organ is rapidly perfused with warm KHS at 37° C., pH 7.4 and gassed with 95% O2 in 5% CO2 in an open system with a constant flow adjusted to yield 1 mL/g/min and maintained by a peristaltic pump. The alterations in perfusion pressure are continuously recorded in a four-channel polygraph (Narco Biosystems, Houston, Tex., USA) by means of a pressure transducer (P23 Gould Stratham, Oxnard, Calif., USA). After a 30 minute equilibration period, phenylephrine (1 to 5 μM) is infused by means of an infusion pump at a constant rate (0.1 ml/min) in order to achieve a stable perfusion pressure (100-120 mm Hg). Concentration-response curves are performed to the vasodilators, i.e. acetylcholine (Ach; 10^-9 to 10^-3 M). Drugs are injected as a 50 μL bolus, previously shown not to effect perfusion pressure in an arm side just above the cannula in the renal artery.] Following penectomy, the corpus cavernosum was dissected in Krebs solution and cleared of the tunica albuginea and surrounding tissues. Strips (2 cm) were mounted vertically in isometric baths (5 mL) in Krebs-Henseleit solution (37° C., pH 7.4 gassed with 95% O2 in 5% CO2) enriched with indomethecin (10 μM) and guanethedine (10 μM) in order to avoid prostanoid or neuronal norandrenergic interaction. After a 60 minute period for stabilization, tissues were precontracted with 10 μM phenylephrine in order to increase the basal tonus. Thereafter, frequency response curves to transmural electrical field stimulations (EFS—square wave pulses: 10 s train; 20 V, 0.5 ms, 2-16 Hz) were performed until two stable reproducible curves were attained. […]

[2] = tested on: bovine aortic endothelial cells; test: Superoxide assay in cells: ROS in high glucose (CM-H2DCFDA); assay type: cell-based; conditions: for reduction of ROS in cells: 30 mM glucose (ROS increased 2 fold vs 5 mM), 20, 50, 100 μM, FIG. 9; for maximal concentration for ROS reduction: 30 mM glucose, tested 20, 50, 100 μM
Method: Bovine aortic endothelial cells were incubated in 5 mM (control) or 30 mM (hyperglycemic) glucose for 2 hours and reactive oxygen species (ROS) determined fluorometrically using the probe CM-H2DCFDA as described by Brownlee et al. Cells were loaded with 10 μM CM-H2DCFDDA, incubated for 45 min at 37°, and then analyzed in an HTS 7000 Bio assay Fluorescent Plate Reader using HT software. ROS production is reported as nmol/mL based on a standard curve produced with H2O2.

[3] = tested on: diabetic aortic rings; test: NO-induced relaxation in diabetic aortic rings contracted with phenylephrine; conditions: 0.1 μM phenylephrine, inositol 10 μM, 1 hour, FIG. 14
Method: NO action was investigated in aortic rings and RbCC. […] The data in FIGS. 14 are expressed as mean±SEM of 5 experimental units. * p<0.05, ANOVA followed by Tukey-Kramer, diab (C) vs. Inositol treated. # p<0.05, ANOVA followed by Tukey-Kramer, Eugly vs. Inositol treated. In FIG. 14, Veh=vehicle; C=diabetic control; Diab=diabetic control; Eugly=euglycemic tissue. Relaxation was restored toward or to normal by incubation with inositols.

[4] = tested on: penile corpus cavernosus; test: Rabbit penile corpus cavernosus: relaxation to electrical field stimulation after 60 min incubation; design: species or system low dose alloxan-diabetic rabbit; conditions: 1 μM; for restoration of vasorelaxant effect of electrical stimulation of the pudendal nerve: EFS 2-16 Hz, FIG. 8
Method: as §1
Kidneys and aortic rings were harvested from diabetic rabbits after 3 weeks of alloxan injection. The animals were sacrificed under sodium pentobarbital anesthesia (Hypnol®, 150-200 mg/kg). […]. Rabbit kidneys were obtained from male New Zealand rabbits (1-1.5 kg) after cannulation of the renal artery in situ. [Thereafter the organ is rapidly perfused with warm KHS at 37° C., pH 7.4 and gassed with 95% O2 in 5% CO2 in an open system with a constant flow adjusted to yield 1 mL/g/min and maintained by a peristaltic pump. The alterations in perfusion pressure are continuously recorded in a four-channel polygraph (Narco Biosystems, Houston, Tex., USA) by means of a pressure transducer (P23 Gould Stratham, Oxnard, Calif., USA). After a 30 minute equilibration period, phenylephrine (1 to 5 μM) is infused by means of an infusion pump at a constant rate (0.1 ml/min) in order to achieve a stable perfusion pressure (100-120 mm Hg). Concentration-response curves are performed to the vasodilators, i.e. acetylcholine (Ach; 10^-9 to 10^-3 M). Drugs are injected as a 50 μL bolus, previously shown not to effect perfusion pressure in an arm side just above the cannula in the renal artery.] Following penectomy, the corpus cavernosum was dissected in Krebs solution and cleared of the tunica albuginea and surrounding tissues. Strips (2 cm) were mounted vertically in isometric baths (5 mL) in Krebs-Henseleit solution (37° C., pH 7.4 gassed with 95% O2 in 5% CO2) enriched with indomethecin (10 μM) and guanethedine (10 μM) in order to avoid prostanoid or neuronal norandrenergic interaction. After a 60 minute period for stabilization, tissues were precontracted with 10 μM phenylephrine in order to increase the basal tonus. Thereafter, frequency response curves to transmural electrical field stimulations (EFS—square wave pulses: 10 s train; 20 V, 0.5 ms, 2-16 Hz) were performed until two stable reproducible curves were attained. Then, frequency response curves were repeated after 60 min incubation with saline or 1 μM pinitol, DCI or db-DCI in the alloxan-diabetic rabbits. They are perfused with KHS containing 1 μM D-chiro-inositol, pinitol, dibutyryl D-chiro-inositol, myo-inositol or saline for 60 min. Dose response curves for acetylcholine are then performed following prior phenylephrine vasoconstriction as described. At least 6 separate experiments were performed each in duplicate.

[5] = tested on: vascular mesenteric bed; test: Rat arteriolar mesenteric bed: acetylcholine-evoked decrease in perfusion pressure after 4-week oral treatment; assay type: in vivo, alloxan-diabetic male Wistar rats; conditions: for effect on microvascular endothelial dysfunction: chronic (4-week) oral administration, highest acetyl choline concentrations, FIG. 4
Method: Male Wistar rats, weighing between 230-250 g, fed regular chow, with free access to water were separated in four groups (n=10/each). The first two groups, termed normoglycemic, were treated with saline (0.1 mL/100 g/12 h) by the oral route (intragastric gavage) or untreated for four weeks. The second two groups, hyperglycemic, were treated with saline (0.1 mL/100 g/12 h) or treated with D-chiro-inositol (20 mg/kg/12 h) under the same protocol. […] Diabetes was induced by a single intravenous injection of 45 mg/kg alloxan as described by Sannomiya et al., 1997 ( ). Diabetes was diagnosed 96 h after injection by blood glucose assay >200 mg/dL. All protocols were approved by the local committee and follow the Guide for the Care and Use of Laboratory Animals published by the US National Institutes of Health (NIH Publication No. 85-23, revised 1996).
The mesentery was carefully removed by cutting close to the intestinal border with a small scissors. […] The vascular bed was rapidly perfused with warm KHS (37° C.; pH 7.4; gassed with 95% O2 in 5% CO2) in an open system with a constant flow of 4 ml/min maintained with a peristaltic pump. Alterations in perfusion pressure were continuously recorded in a four-channel polygraph (Narco Biosystems, Houston, Tex., USA) by means of a pressure transducer (P23 Gould Stratham, Oxnard, Calif., USA). After a 30 minute equilibration period, phenylephrine (1 to 5 μM) was infused by means of an infusion pump at a constant rate (0.1 ml/min) in order to achieve a stable perfusion pressure (100-120 mm Hg). Dose response curves were performed with vasodilators, i.e. acetylcholine (Ach; 10^-9 to 10^-3 M). Drugs were injected as 50 μL boluses, previously shown not to effect perfusion pressure in a side arm just above the cannula in the mesenteric artery. At least 6 separate experiments were performed each in duplicate.

[6] = listed as dibutyryl D-chiro-inositol

SMILES | restoration of vasorelaxant effect of acetylcholine, DCI versus db-DCI [1] | reduction of ROS in cells [2] | reduction of ROS in cells ([2]; listed as D-chiro-inositol) | maximal concentration for ROS reduction [2] | relaxation to added NO [3] | restoration of vasorelaxant effect of electrical stimulation of the pudendal nerve [4] | effect on microvascular endothelial dysfunction [5] | effect on microvascular endothelial dysfunction ([5]; listed as D-chiro-inositol) | maximal decrease in perfusion pressure to acetylcholine ([5]; tissues from alloxan-diabetic rats treated with D-chiro-inositol 20 mg/kg/12 h by gavage for 4 weeks, saline-treated diabetic 23±5%, normoglycemic 61±3.7%) | restoration of endothelial function (acetylcholine induced decrease in perfusion pressure) ([1]; listed as db-DCI) | restoration of endothelial function (acetylcholine induced decrease in perfusion pressure) [1, 6] | reduction of ROS in cells ([2]; listed as Dibutyryl-DCI) | restoration of vasorelaxant effect at EFS of 4 Hz ([4]; EFS 4 Hz) | effect on microvascular endothelial dysfunction [5, 6]
OC1C(O)C(O)C(O)C(O)C1O [DCI, D-chiro-inositol] | partially restored | reduced back to basal concentrations in a dose dependant manner | reduced to basal concentrations in a dose dependent manner | 50 µM | restored relaxation to normal | restoration of vasorelaxant effect | approximately equally effective | effective | 52±6% | – | – | – | – | –
CCCC(=O)O[C@@H]1[C@@H](O)[C@@H](O)[C@H](O)[C@H](O)[C@H]1OC(=O)CCC [dbDCI, 3,4-dibutyryl-D-chiroinositol] | partially restored | reduced back to basal concentrations in a dose dependant manner | – | 20 µM | restored relaxation to normal | restoration of vasorelaxant effect; also recorded: greatest effect at all levels of electrical stimulation | perhaps slightly better than pinitol and DCI | – | – | completely restored endothelial function | restored to normal | greater effect of reducing ROS than DCI at lower concentrations | Almost complete restoration | perhaps slightly better than pinitol and D-chiro-inositol
